Assay results from article PMC11680018, “Study of Cytotoxicity of Spiro-Fused [3-Azabicyclo[3.1.0]hexane]oxindoles and Cyclopropa[a]pyrrolizidine-oxindoles Against Tumor Cell Lines” (Pharmaceuticals, 2024).
Several values for one entry are separate records, joined by “and”; a condition that tells them apart may be missing. Equal values may be shown once. Read-outs that look alike come from different tables or passages of the source.

Assays:
[1] = system: peripheral blood mononuclear cells (PBMC); test: MTS cytotoxicity towards normal cells, PBMC; type: cell-based; settings: Homo sapiens
Procedure: (§1) Cancer cell lines are valuable in vitro model systems that are widely used in cancer research and drug discovery. Their use is mainly linked to their possibility to provide for experimental purposes an unlimited source of biological material. Here, the 24 and 72 h in vitro MTS assay was used to determine the antiproliferative activity of synthesized spiro-fused cyclopropa[a]pyrrolizidine-2,3′-oxindoles and [3-azabicyclo[3.1.0]hexane]-oxindoles against human erythroleukemia (K562), acute T cell leukemia (Jurkat), cervical carcinoma (HeLa), melanoma (Sk-mel-2), breast cancer adenocarcinoma (MCF-7) as well as mouse colon carcinoma (CT26) cell lines. […] The full results of these investigations are presented in the Supporting Information Figures S1–S6. […] An evaluation of the cytotoxicity of the selected compounds towards normal cells (peripheral blood mononuclear cells) was performed additionally to understand their respective relative selectivities. The selectivity index was obtained using the ratio of measured cytotoxicity between the PBMC cells and each of the cancer cell lines, and the results are presented in Table 3.
(§2) The human erythroleukemia (K-562), cervical carcinoma (HeLa) as well as mouse colon carcinoma (CT26) cell lines were obtained from the Bank of Cell Cultures of the Institute of Cytology of the Russian Academy of Sciences; the human melanoma (Sk-mel-2) cell line was obtained from the Bank of Cell Cultures of the Institute of Cytology and Genetics, Siberian Branch of the Russian Academy of Sciences. The acute T cell leukemia (Jurkat) cell line was obtained from the Bank of Cell Cultures of the Institute of Immunology of the Russian Academy of Medical Sciences. The peripheral blood mononuclear cells (PBMC) were isolated from the blood of healthy donors. K-562, Jurkat, MCF-7, PBMC and CT26 cells were grown on RPMI medium (Hyclone, GE Healthcare Life Sciences, Logan, UT, USA) supplemented with 10% (v/v) fetal bovine serum (Hyclone, GE Healthcare Life Sciences, Logan, UT, USA) and gentamicin (Sigma-Aldrich, St. Louis, MO, USA) at 37 °C in a humidified atmosphere with 5% CO2. HeLa and Sk-mel-2 cells were cultured with the same supplements and conditions in DMEM medium (Hyclone, GE Healthcare Life Sciences, Logan, UT, USA).
(§3) To evaluate the in vitro toxicity of the compounds synthesized, cells were seeded into 96-well plates at a density of 5 × 10^3 cells per well. On the next day, the tested compounds were added to the wells at concentrations ranging from 1 to 30 μg/mL, followed by incubation for 1 and 3 days. Cell proliferation was determined by adding 20 μL of MTS reagent (BioVision, Milpitas, CA, USA) stock solution per well. The plates were incubated for 2 h at 37 °C in a humidified, 5% CO2 atmosphere. The plates were then read at 495 nm using a plate spectrophotometer (Multiskan GO, Thermo Fisher Scientific, Waltham, MA, USA). All samples were measured in triplicate.

[2] = system: cervical carcinoma (HeLa) cell line; test: MTS cell proliferation assay, HeLa; type: cell-based, human; settings: for IC50: Homo sapiens, HeLa, MTS; for SI (selectivity index) HeLa: ratio of cytotoxicity PBMC / HeLa, calculated at 72 h
Procedure: as §1, §2, §3

[3] = system: HeLa cells actin cytoskeleton; test: Actin cytoskeleton staining, confocal microscopy, HeLa; type: cell-based, human; settings: 10 μg/mL, 24 h; for HeLa cells with filopodia-like deformations: control cells 93%, lowest value over the compounds; for HeLa cells with granular actin distributed diffusely in the cytoplasm (stress fibers disappeared): maximum over the compounds
Procedure: It was found using confocal microscopy that incubation with spiro-fused [3-azabicyclo[3.1.0]hexane]oxindoles 4, 8, 17, 18, 22, 24 and cyclopropa[a]pyrrolizidine-2,3′-oxindole 2 led to significant changes in the HeLa cells’ actin cytoskeleton structure leading to the disappearance of stress fibers (granular actin was distributed diffusely in the cytoplasm in up to 38% of treated cells) and changes in the number of filopodia-like deformations (reduced from 93% in control cells to 64% after treatment). The impact on the Sk-mel-2 cells’ actin cytoskeleton structure was even greater: granular actin was distributed diffusely in the cytoplasm in up to 90% of treated cells while the number of filopodia-like deformations was reduced by up to 23%. Such changes in the cytoskeleton may indicate a change in the motor activity of cells, which may indicate a decrease in the ability of tumor cells to metastasize.
HeLa cells were seeded at a density of 2 × 10^5 cells per dish onto a petri dish with cover slips and incubated for 24 h. After that, cells were treated with chosen compounds (10 μg/mL) for 24 h. The medium was removed and cells were fixed with 4% paraformaldehyde (Sigma-Aldrich, St. Louis, MO, USA), washed three times with PBS, and permeabilized with 0.3% Triton-X100 (Sigma-Aldrich, St. Louis, MO, USA). The cells were rinsed three times with PBS. Actin filaments (microfilaments) were stained with rhodamine–phalloidin (Invitrogen, Carlsbad, CA, USA) at 37 °C for 15 min. The samples were rinsed three times with PBS, followed by embedding in Fluoroshield medium (Sigma-Aldrich, St. Louis, MO, USA). Cells were imaged using an Axio Observer Z1 confocal microscope (Carl Zeiss MicroImaging GmbH, Jena, Germany). In each experiment, at least 30 cells were imaged. Images were analyzed by a pathologist blinded to the treatment mode used for each group using ImageJ software, 1.52v.

[4] = system: mouse colon carcinoma (CT26) cell line; test: MTS cell proliferation assay, CT26; type: cell-based; settings: for IC50: Mus musculus, MTS; for SI (selectivity index) CT26: ratio of cytotoxicity PBMC / CT26, calculated at 72 h
Procedure: as §1, §2, §3

[5] = system: K562, Jurkat, HeLa, Sk-mel-2, MCF-7 and CT26 cell lines; test: MTS cell proliferation assay, panel of cell lines (summary statements); type: cell-based
Procedure: as §1, §2, §3

[6] = system: breast cancer adenocarcinoma (MCF-7) cell line; test: MTS cell proliferation assay, MCF-7; type: cell-based, human; settings: for IC50: Homo sapiens, MTS; for SI (selectivity index) MCF-7: ratio of cytotoxicity PBMC / MCF-7, calculated at 72 h
Procedure: as §1, §2, §3

[7] = system: human erythroleukemia (K562) cell line; test: MTS cell proliferation assay, K562; type: cell-based; settings: for IC50: Homo sapiens, MTS; for SI (selectivity index) K562: ratio of cytotoxicity PBMC / K562, calculated at 72 h
Procedure: as §1, §2, §3

[8] = system: melanoma (Sk-mel-2) cell line; test: MTS cell proliferation assay, Sk-mel-2; type: cell-based, human; settings: for IC50: Homo sapiens, MTS; for SI (selectivity index) Sk-mel-2: ratio of cytotoxicity PBMC / Sk-mel-2, calculated at 72 h
Procedure: as §1, §2, §3

[9] = system: acute T cell leukemia (Jurkat) cell line; test: MTS cell proliferation assay, Jurkat; type: cell-based, human; settings: for IC50: Homo sapiens, Jurkat, MTS; for SI (selectivity index) Jurkat: ratio of cytotoxicity PBMC / Jurkat, calculated at 72 h
Procedure: as §1, §2, §3

[10] = read-out: IC50 CT26 24 h, CT26, 24 h
[11] = CT26, 72 h, read-out: IC50 CT26 72 h
[12] = 72 h, range over four cell lines and compounds, read-out: IC50 against the Jurkat, K-562, HeLa and Sk-mel-2 cell lines
[13] = MCF7, read-out: IC50 MCF-7 24 h, MCF-7, 24 h
[14] = MCF7, MCF-7, 72 h, read-out: IC50 MCF-7 72 h
[15] = read-out: IC50 K562 24 h, K562, 24 h
[16] = K562, 72 h, read-out: IC50 K562 72 h
[17] = read-out: IC50 Sk-mel-2 24 h, Sk-mel-2, 24 h
[18] = Sk-mel-2, 72 h, read-out: IC50 Sk-mel-2 72 h
[19] = read-out: IC50 Jurkat 24 h, 24 h
[20] = 72 h, read-out: IC50 Jurkat 72 h

## CSCCC1NC2(C(=O)Nc3ccccc32)C2(c3ccccc3)C(c3ccccc3)C12c1ccccc1 (stereo not shown) [Compound 24]
[1]; 72 h, read-out: IC50 PBMC 72 h
  IC50: 92 ± 11 µM
[1]; read-out: IC50 PBMC 24 h, 24 h
  IC50: 113 ± 14 µM
[2]; read-out: IC50 HeLa 24 h, 24 h
  IC50: 20 ± 2 µM
[2]; 72 h, read-out: IC50 HeLa 72 h
  IC50: 8 ± 1 µM
[2]
  SI (selectivity index) HeLa: 12
[3]
  HeLa cells with filopodia-like deformations: ≥ 64%
  HeLa cells with granular actin distributed diffusely in the cytoplasm (stress fibers disappeared): up to 38%
[4]; [10]
  IC50: > 40 µM
[4]; [11]
  IC50: > 40 µM
[4]
  SI (selectivity index) CT26: 1
[5]; [12]
  IC50: 2 to 10 µM
[6]; [13]
  IC50: > 40 µM
[6]; [14]
  IC50: > 40 µM
[6]
  SI (selectivity index) MCF-7: 1
[7]; [15]
  IC50: > 40 µM
[7]; [16]
  IC50: 10 ± 1 µM
[7]
  SI (selectivity index) K562: 9
[8]; [17]
  IC50: > 40 µM
[8]; [18]
  IC50: 8 ± 1 µM
[8]
  SI (selectivity index) Sk-mel-2: 12
[9]; [19]
  IC50: 22 ± 2 µM
[9]; [20]
  IC50: 4 ± 1 µM
[9]
  SI (selectivity index) Jurkat: 23

## COC(=O)C1C2(c3ccccc3)C(Cc3ccc(O)cc3)NC3(C(=O)Nc4ccccc43)C12c1ccccc1 (stereo not shown) [Compound 17]
[1]; 72 h, read-out: IC50 PBMC 72 h
  IC50: 112 ± 9 µM
[1]; read-out: IC50 PBMC 24 h, 24 h
  IC50: 127 ± 16 µM
[2]; read-out: IC50 HeLa 24 h, 24 h
  IC50: 31 ± 2 µM
[2]; 72 h, read-out: IC50 HeLa 72 h
  IC50: 14 ± 2 µM
[2]
  SI (selectivity index) HeLa: 8
[3]
  HeLa cells with filopodia-like deformations: ≥ 64%
  HeLa cells with granular actin distributed diffusely in the cytoplasm (stress fibers disappeared): up to 38%
[4]; [10]
  IC50: > 40 µM
[4]; [11]
  IC50: 23 ± 2 µM
[4]
  SI (selectivity index) CT26: 5
[6]; [13]
  IC50: > 40 µM
[6]; [14]
  IC50: > 40 µM
[6]
  SI (selectivity index) MCF-7: 2
[7]; [15]
  IC50: 35 ± 5 µM
[7]; [16]
  IC50: 14 ± 1 µM
[7]
  SI (selectivity index) K562: 8
[8]; [17]
  IC50: > 40 µM
[8]; [18]
  IC50: 14 ± 2 µM
[8]
  SI (selectivity index) Sk-mel-2: 8
[9]; [19]
  IC50: 12 ± 1 µM
[9]; [20]
  IC50: 8 ± 1 µM
[9]
  SI (selectivity index) Jurkat: 15

## CC(C)C1NC2(C(=O)Nc3ccccc32)C2(c3ccccc3)C(c3ccccc3)C12c1ccccc1 (stereo not shown) [Compound 8]
[1]; 72 h, read-out: IC50 PBMC 72 h
  IC50: 47 ± 5 µM
[1]; read-out: IC50 PBMC 24 h, 24 h
  IC50: 83 ± 7 µM
[2]; read-out: IC50 HeLa 24 h, 24 h
  IC50: > 40 µM
[2]; 72 h, read-out: IC50 HeLa 72 h
  IC50: 8 ± 1 µM
[2]
  SI (selectivity index) HeLa: 6
[3]
  HeLa cells with filopodia-like deformations: ≥ 64%
  HeLa cells with granular actin distributed diffusely in the cytoplasm (stress fibers disappeared): up to 38%
[4]; [10]
  IC50: > 40 µM
[4]; [11]
  IC50: 11 ± 1 µM
[4]
  SI (selectivity index) CT26: 4
[5]; [12]
  IC50: 2 to 10 µM
[6]; [13]
  IC50: > 40 µM
[6]; [14]
  IC50: > 40 µM
[6]
  SI (selectivity index) MCF-7: 1
[7]; [15]
  IC50: 25 ± 1 µM
[7]; [16]
  IC50: 6 ± 1 µM
[7]
  SI (selectivity index) K562: 7
[8]; [17]
  IC50: 15 ± 1 µM
[8]; [18]
  IC50: 8 ± 1 µM
[8]
  SI (selectivity index) Sk-mel-2: 6
[9]; [19]
  IC50: 11 ± 1 µM
[9]; [20]
  IC50: 2 ± 1 µM
[9]
  SI (selectivity index) Jurkat: 22

## O=C1Nc2ccc([N+](=O)[O-])cc2C12N1CCCC1C1(c3ccccc3)C(c3ccccc3)C12c1ccccc1 (stereo not shown) [Compound 2]
[1]; 72 h, read-out: IC50 PBMC 72 h
  IC50: 84 ± 8 µM
[1]; read-out: IC50 PBMC 24 h, 24 h
  IC50: 121 ± 8 µM
[2]; read-out: IC50 HeLa 24 h, 24 h
  IC50: > 40 µM
[2]; 72 h, read-out: IC50 HeLa 72 h
  IC50: 12 ± 1 µM
[2]
  SI (selectivity index) HeLa: 7
[3]
  HeLa cells with filopodia-like deformations: ≥ 64%
  HeLa cells with granular actin distributed diffusely in the cytoplasm (stress fibers disappeared): up to 38%
[4]; [10]
  IC50: > 40 µM
[4]; [11]
  IC50: 23 ± 2 µM
[4]
  SI (selectivity index) CT26: 4
[5]; range over cell lines, except for the breast cancer cell line, read-out: IC50 over the tested cell lines
  IC50: 2 µg/mL to 12 µg/mL and 4 µM to 23 µM
[6]; [13]
  IC50: > 40 µM
[6]; [14]
  IC50: > 40 µM
[6]
  SI (selectivity index) MCF-7: 2
[7]; [15]
  IC50: 29 ± 2 µM
[7]; [16]
  IC50: 8 ± 1 µM
[7]
  SI (selectivity index) K562: 11
[8]; [17]
  IC50: 14 ± 1 µM
[8]; [18]
  IC50: 12 ± 1 µM
[8]
  SI (selectivity index) Sk-mel-2: 7
[9]; [19]
  IC50: 18 ± 2 µM
[9]; [20]
  IC50: 4 ± 1 µM
[9]
  SI (selectivity index) Jurkat: 22
